# From ChEMBL document CHEMBL1125088, “Stereospecific synthesis, assignment of absolute configuration, and biological activity of the enantiomers of 3-[[[3-[2-(7-chloroquinolin-2-yl)-(E)-ethenyl]phenyl] [[3-(dimethylamino)-3-oxopropyl]thio]methyl]thio]propionic acid, a potent and specific leukotriene D4 receptor antagonist” (J Med Chem, 1990)
# How the values were obtained:
# [1] = biological target: T1, Cysteinyl leukotriene receptor 1 (Homo sapiens, UniProt Q9Y271); assay: In vitro inhibitory activity against Cysteinyl leukotriene D4 receptor from human lung membrane; type: tissue-based
# T1 sequence (Q9Y271 whole entry): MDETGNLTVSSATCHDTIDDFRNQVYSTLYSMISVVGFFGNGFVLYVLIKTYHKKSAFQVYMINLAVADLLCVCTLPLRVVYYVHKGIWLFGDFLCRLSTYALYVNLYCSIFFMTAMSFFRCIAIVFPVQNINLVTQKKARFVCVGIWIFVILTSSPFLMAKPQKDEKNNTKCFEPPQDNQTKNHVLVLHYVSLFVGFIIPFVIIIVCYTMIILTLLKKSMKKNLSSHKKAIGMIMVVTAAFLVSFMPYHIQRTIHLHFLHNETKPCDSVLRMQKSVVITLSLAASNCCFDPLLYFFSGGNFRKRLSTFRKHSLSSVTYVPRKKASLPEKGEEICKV
# [2] = biological target: T2, Cysteinyl leukotriene receptor 1 (Cavia porcellus, UniProt Q2NNR5); assay: Binding affinity against Cysteinyl leukotriene D4 receptor from guinea pig lung membrane; type: tissue-based
# T2 sequence (Q2NNR5 whole entry): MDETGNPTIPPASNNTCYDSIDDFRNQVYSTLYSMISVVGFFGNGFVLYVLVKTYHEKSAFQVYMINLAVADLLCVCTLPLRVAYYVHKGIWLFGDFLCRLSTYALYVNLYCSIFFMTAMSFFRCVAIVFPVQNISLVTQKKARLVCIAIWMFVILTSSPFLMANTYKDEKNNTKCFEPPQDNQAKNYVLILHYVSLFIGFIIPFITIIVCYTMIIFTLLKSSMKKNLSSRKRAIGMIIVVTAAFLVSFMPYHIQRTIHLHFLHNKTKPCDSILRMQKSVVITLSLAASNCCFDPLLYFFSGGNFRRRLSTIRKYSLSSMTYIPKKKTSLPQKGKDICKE
# Cavia porcellus = species: Cavia porcellus; assay: Antagonist activity of LTD4-induced contractions of isolated guinea pig trachea; type: functional
# Rattus norvegicus = species: Rattus norvegicus; assay: Tested for antigen-induced dyspnea in hyperactive rats; type: functional
IC50 [1] [nM],IC50 [2] [nM],SMILES,-Log KB (Cavia porcellus),ED50 (Rattus norvegicus) [mg/kg]
3.1,0.77,CN(C)C(=O)CCSC(SCCC(=O)[O-])c1cccc(/C=C/c2ccc3ccc(Cl)cc3n2)c1.[Na+] (stereo not drawn),9,0.097
8,3.2,CN(C)C(=O)CCS[C@H](SCCC(=O)O)c1cccc(/C=C/c2ccc3ccc(Cl)cc3n2)c1 [VERLUKAST],8.7,0.028
